Values of other authors, collected in US6765015B2, “Halogenated paclitaxel derivatives” (Xechem International, Inc., priority 1995, dated 2004).

Tested on: leukemic tumors
Conditions: in vivo

SMILES: C/C=C(\C)C(=O)N[C@@H](c1ccccc1)[C@@H](O)C(=O)O[C@H]1C[C@@]2(O)[C@@H](OC(=O)c3ccccc3)[C@@H]3[C@]4(OC(C)=O)CO[C@@H]4C[C@H](O)[C@@]3(C)C(=O)[C@H](OC(C)=O)C(=C1C)C2(C)C [Cephalomannine, cephalomannine]
- remission of leukemic tumors: effective in causing remission of leukemic tumors
